Consider five compounds from patent USRE45340E1, “Lentil plants having increased resistance to imidazolinone herbicides” (University of Saskatchewan, priority 2001, dated 2015).

Assay [1] has as its system AHAS. As to the kind of experiment: Inhibition of AHAS activity in wild type CDC Richlea lentil by imidazolinone herbicides. It is filed as biochemical, lentil (Lens culinaris). As to conditions: wild type CDC Richlea lentil variety; increasing herbicide concentrations (FIG. 4, FIG. 5). An excerpt:
(§1) FIG. 4 is a graph showing the inhibition of AHAS activity in RH44 and CDC Richlea lentil plants by increasing concentrations of imazapic.
(§2) FIG. 5 is a graph showing the inhibition of AHAS activity in RH44 and CDC Richlea lentil plants by increasing concentrations of imazethapyr.
(§3) The AHAS activity in the wild type CDC Richlea lentil variety was inhibited by imazapic (CADRE®)) (FIG. 4) and imazethapyr (PURSUIT®) (FIG. 5) representative of all imidazolinone herbicides.

Assay [2] relates to AHAS. Briefly: Inhibition of AHAS activity in RH44 lentil by imidazolinone herbicides. Type of assay: biochemical, lentil (Lens culinaris). As to conditions: RH44 lentil variety, compared with wild type CDC Richlea (FIG. 4, FIG. 5).
Description: as §1, §2, §3
It is therefore likely that the gene primarily responsible for AHAS activity in the RH44 lentil has undergone a point mutation similar to that observed in corn, wheat and canola. This has made the isozyme coded for by this sequence resistant to imidazolinone inhibition. The wild type isozyme has no such mutation and therefore is susceptible to imidazolinone herbicide. Such a scenario would explain why AHAS activity drops 30 to 40% with the addition of maximum concentrations of imidazolinone herbicides.

Assay [3] relates to AHAS. As to the kind of experiment: Negative feedback inhibition assay of AHAS activity. Type of assay: biochemical, RH44 lentil and CDC Richlea lentil varieties. As to conditions: leucine and valine addition (FIG. 3). An excerpt:
FIG. 3 is a graph showing the inhibition of AHAS activity in RH44 and CDC Richlea lentil plants by a negative feedback inhibition assay.
The responses of the RH44 lentil variety and the CDC Richlea variety were identical in a negative feedback inhibition assay. As described earlier, AHAS is an enzyme active in the biosynthesis of leucine and valine. Under conditions of excess leucine and/or valine, the activity of AHAS is diminished. The ability of leucine and valine addition to inhibit AHAS activity was the same in the RH44 lentil and CDC Richlea lentil varieties, indicating very similar levels of expression and a lack of any discernible difference in AHAS function (FIG. 3).

Another assay deals with transgenic rice. As to conditions: cited from earlier work.

In the case of `CCc1cnc(C2=NC(C)(C(C)C)C(=O)N2)c(C(=O)O)c1` (centres unmarked) [imazethapyr], the “inhibition of AHAS activity” value was “inhibited” with AHAS [1] and “not to the same extent as for the wild type lentil CDC Richlea” in the assay with AHAS [2].
On to `CC(C)C[C@H](N)C(=O)O` [leucine], for which the “ability to inhibit AHAS activity, RH44 versus CDC Richlea” value in the assay on AHAS [3] is reported as “the same”.
With `COc1nc(C)nc(NC(=O)NS(=O)(=O)c2ccccc2Cl)n1` [chlorsulfuron], the “differences in in vitro resistance” value with transgenic rice (Arabidopsis ALS promoter replaced with the CaMV35S promoter) is 40 fold. In addition, the “increase in in vitro resistance” value with transgenic rice (transgenic rice containing a 35S/ALS transgene) is given as 200 fold.
Take `Cc1cnc(C2=NC(=O)C(C)(C(C)C)N2)c(C(=O)O)c1` (centres unmarked) [imazapic]: the “inhibition of AHAS activity” value with AHAS [1] is reported as “inhibited”; in the assay on AHAS [2] it was “not to the same extent as for the wild type lentil CDC Richlea”.
As to `CC(C)[C@H](N)C(=O)O` [valine], in the assay on AHAS [3], the “ability to inhibit AHAS activity, RH44 versus CDC Richlea” value was “the same”.
